Like-named read-outs stand apart in the source and are kept apart here. Positions of bridges follow the written chain, without caps; N, C: chain ends. Residues, ends and D or L forms follow the SMILES beside them.
Assays:
[1] = molecular target: T1, rKv4.2 (Rattus norvegicus, UniProt Q63881); test: cell-based; settings: for IC50: whole-cell patch clamp, HEK293T, mean ± SEM, n = 3-8, read-out: IC50 on rKv4.2 WT
T1 construct: expressed in transfected cells; host or cells: HEK293T
T1 sequence (Q63881 1-630): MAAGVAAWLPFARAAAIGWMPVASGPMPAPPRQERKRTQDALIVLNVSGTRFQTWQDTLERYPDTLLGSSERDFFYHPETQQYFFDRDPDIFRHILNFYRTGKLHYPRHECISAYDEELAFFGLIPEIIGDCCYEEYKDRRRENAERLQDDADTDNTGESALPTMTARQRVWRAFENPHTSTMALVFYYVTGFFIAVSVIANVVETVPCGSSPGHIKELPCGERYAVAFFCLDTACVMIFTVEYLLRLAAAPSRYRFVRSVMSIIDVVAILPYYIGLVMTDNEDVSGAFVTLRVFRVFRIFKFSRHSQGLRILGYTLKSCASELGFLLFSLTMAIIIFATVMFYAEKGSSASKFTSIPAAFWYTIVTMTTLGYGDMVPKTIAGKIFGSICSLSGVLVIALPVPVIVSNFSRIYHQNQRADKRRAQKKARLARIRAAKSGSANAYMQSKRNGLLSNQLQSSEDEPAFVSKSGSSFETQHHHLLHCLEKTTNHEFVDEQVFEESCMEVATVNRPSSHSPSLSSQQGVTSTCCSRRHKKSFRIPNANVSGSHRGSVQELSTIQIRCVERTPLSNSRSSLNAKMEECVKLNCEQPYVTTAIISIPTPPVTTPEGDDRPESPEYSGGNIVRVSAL

[2] = molecular target: T2, hNav1.7 (Homo sapiens, UniProt Q15858); test: cell-based; settings: whole-cell patch clamp, HEK293T, mean ± SEM, this study, read-out: IC50 on hNav1.7
T2 construct: expressed in transfected cells; host or cells: HEK293T
T2 sequence (O60939 30-215): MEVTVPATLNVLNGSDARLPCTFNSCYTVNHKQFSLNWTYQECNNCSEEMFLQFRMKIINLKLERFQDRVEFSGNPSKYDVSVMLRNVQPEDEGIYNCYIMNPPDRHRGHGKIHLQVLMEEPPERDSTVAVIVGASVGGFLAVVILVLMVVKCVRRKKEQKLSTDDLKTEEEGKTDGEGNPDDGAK
T2 sequence (Q15858 other isoform, or with tags, fused parts or gaps): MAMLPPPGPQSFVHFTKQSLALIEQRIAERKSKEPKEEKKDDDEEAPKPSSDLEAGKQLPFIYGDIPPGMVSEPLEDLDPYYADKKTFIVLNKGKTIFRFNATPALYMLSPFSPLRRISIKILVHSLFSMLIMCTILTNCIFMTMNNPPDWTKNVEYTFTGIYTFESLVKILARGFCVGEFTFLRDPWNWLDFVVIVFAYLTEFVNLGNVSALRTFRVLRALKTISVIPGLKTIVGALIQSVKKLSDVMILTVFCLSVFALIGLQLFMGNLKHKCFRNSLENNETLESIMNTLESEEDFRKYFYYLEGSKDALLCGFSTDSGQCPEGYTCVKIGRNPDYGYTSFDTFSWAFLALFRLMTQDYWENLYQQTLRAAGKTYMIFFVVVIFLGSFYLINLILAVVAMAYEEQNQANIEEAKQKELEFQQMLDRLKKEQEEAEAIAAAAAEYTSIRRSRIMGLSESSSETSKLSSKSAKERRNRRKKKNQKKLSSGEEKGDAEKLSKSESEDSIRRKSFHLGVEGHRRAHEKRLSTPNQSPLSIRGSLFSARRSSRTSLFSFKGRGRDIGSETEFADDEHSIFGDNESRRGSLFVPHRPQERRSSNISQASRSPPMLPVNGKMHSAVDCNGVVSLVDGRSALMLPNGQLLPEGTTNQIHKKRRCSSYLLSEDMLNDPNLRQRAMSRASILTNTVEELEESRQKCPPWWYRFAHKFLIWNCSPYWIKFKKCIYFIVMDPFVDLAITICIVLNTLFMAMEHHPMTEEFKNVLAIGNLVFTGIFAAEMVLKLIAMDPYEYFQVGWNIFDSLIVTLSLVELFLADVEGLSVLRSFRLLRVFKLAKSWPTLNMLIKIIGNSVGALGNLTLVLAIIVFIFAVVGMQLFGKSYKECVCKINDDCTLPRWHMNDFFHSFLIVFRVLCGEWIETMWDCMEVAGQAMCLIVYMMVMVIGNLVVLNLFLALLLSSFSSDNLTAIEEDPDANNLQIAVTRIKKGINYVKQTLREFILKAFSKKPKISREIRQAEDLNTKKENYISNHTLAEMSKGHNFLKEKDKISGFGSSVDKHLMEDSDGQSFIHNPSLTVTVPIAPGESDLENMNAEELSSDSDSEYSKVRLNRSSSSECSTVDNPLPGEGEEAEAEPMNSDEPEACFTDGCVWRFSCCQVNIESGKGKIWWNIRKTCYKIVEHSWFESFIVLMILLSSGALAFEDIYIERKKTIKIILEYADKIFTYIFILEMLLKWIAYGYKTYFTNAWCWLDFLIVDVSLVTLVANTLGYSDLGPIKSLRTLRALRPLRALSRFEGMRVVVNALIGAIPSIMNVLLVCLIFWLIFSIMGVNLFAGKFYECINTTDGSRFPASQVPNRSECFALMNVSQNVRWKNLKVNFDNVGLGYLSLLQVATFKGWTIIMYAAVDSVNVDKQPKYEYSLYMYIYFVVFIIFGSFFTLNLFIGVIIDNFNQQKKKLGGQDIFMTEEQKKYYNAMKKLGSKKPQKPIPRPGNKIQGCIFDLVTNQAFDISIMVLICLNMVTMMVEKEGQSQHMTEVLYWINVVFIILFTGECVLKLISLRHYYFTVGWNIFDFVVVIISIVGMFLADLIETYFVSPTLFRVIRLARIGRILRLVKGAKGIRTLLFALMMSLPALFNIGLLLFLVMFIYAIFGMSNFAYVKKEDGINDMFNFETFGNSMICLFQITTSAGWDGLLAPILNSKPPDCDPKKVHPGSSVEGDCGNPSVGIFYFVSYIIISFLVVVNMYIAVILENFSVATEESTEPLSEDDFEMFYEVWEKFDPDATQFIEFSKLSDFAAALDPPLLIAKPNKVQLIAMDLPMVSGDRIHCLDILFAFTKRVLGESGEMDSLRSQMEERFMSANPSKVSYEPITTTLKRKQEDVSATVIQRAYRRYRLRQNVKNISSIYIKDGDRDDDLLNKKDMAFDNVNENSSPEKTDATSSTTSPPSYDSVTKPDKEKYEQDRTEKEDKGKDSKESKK
T2 sequence (Q07699 19-218, further chain): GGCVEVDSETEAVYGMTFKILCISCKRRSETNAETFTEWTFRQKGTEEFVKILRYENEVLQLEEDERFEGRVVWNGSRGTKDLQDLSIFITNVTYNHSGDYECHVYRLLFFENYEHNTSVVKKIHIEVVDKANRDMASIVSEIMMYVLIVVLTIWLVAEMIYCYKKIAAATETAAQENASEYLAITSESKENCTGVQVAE

| SMILES | IC50 ([1]; SEM) | other results |
| --- | --- | --- |
| CC(C)C[C@H](NC(=O)[C@H](Cc1ccc(O)cc1)NC(=O)[C@@H](NC(=O)[C@H](CCCCN)NC(=O)[C@@H]1CSSC[C@@H]2NC(=O)[C@H](CCC(=O)O)NC(=O)[C@H](CC(N)=O)NC(=O)[C@H](CCCCN)NC(=O)CNC(=O)[C@@H]3CCCN3C(=O)[C@H]([C@@H](C)O)NC(=O)[C@@H]3CSSC[C@H](NC(=O)[C@H](C)NC(=O)[C@H](Cc4ccc(O)cc4)NC(=O)[C@H](CC(N)=O)NC(=O)[C@@H]4CCCN4C(=O)[C@H](CSSC[C@H](NC(=O)CN)C(=O)N[C@@H](CCCCN)C(=O)NCC(=O)N[C@@H](Cc4ccccc4)C(=O)NCC(=O)N[C@@H](CC(=O)O)C(=O)N[C@@H](CO)C(=O)N3)NC2=O)C(=O)N[C@@H](CO)C(=O)N[C@@H](CO)C(=O)N[C@@H](C)C(=O)N[C@@H](Cc2c[nH]cn2)C(=O)N[C@@H](CCCCN)C(=O)N[C@@H](Cc2c[nH]c3ccccc23)C(=O)N1)C(C)C)C(N)=O [K25A] (H-GCKGFGDSCTPGKNECCPNYACSSAHKWCKVYL-NH2; disulfide 2-17, 9-22, 16-29) | – | IC50 [1]: > 20000 nM; IC50 ([2]; SEM): 2000 ± 332 nM |
| CC(C)[C@H](NC(=O)[C@H](CCCCN)NC(=O)[C@@H]1CSSC[C@@H]2NC(=O)[C@H](CCC(=O)O)NC(=O)[C@H](CC(N)=O)NC(=O)[C@H](CCCCN)NC(=O)CNC(=O)[C@@H]3CCCN3C(=O)[C@H]([C@@H](C)O)NC(=O)[C@@H]3CSSC[C@H](NC(=O)[C@H](C)NC(=O)[C@H](Cc4ccc(O)cc4)NC(=O)[C@H](CC(N)=O)NC(=O)[C@@H]4CCCN4C(=O)[C@H](CSSC[C@H](NC(=O)CN)C(=O)N[C@@H](CCCCN)C(=O)NCC(=O)N[C@@H](Cc4ccccc4)C(=O)NCC(=O)N[C@@H](CC(=O)O)C(=O)N[C@@H](CO)C(=O)N3)NC2=O)C(=O)N[C@@H](CO)C(=O)N[C@@H](CO)C(=O)N[C@@H](CCCCN)C(=O)N[C@@H](Cc2c[nH]cn2)C(=O)N[C@@H](CCCCN)C(=O)N[C@@H](Cc2c[nH]c3ccccc23)C(=O)N1)C(=O)N[C@@H](Cc1ccc(O)cc1)C(=O)N[C@@H](CCCCN)C(N)=O [L33K] (H-GCKGFGDSCTPGKNECCPNYACSSKHKWCKVYK-NH2; disulfide 2-17, 9-22, 16-29) | 20000 ± 4000 nM | IC50 [2]: > 10000 nM |
| CC(C)C[C@H](NC(=O)[C@H](Cc1ccc(O)cc1)NC(=O)[C@@H](NC(=O)[C@H](CCCCN)NC(=O)[C@@H]1CSSC[C@@H]2NC(=O)[C@H](CCC(=O)O)NC(=O)[C@H](CC(N)=O)NC(=O)[C@H](CCCCN)NC(=O)CNC(=O)[C@@H]3CCCN3C(=O)[C@H]([C@@H](C)O)NC(=O)[C@@H]3CSSC[C@H](NC(=O)[C@H](C)NC(=O)[C@H](Cc4ccc(O)cc4)NC(=O)[C@H](CCCCN)NC(=O)[C@@H]4CCCN4C(=O)[C@H](CSSC[C@H](NC(=O)CN)C(=O)N[C@@H](CCCCN)C(=O)NCC(=O)N[C@@H](Cc4ccccc4)C(=O)NCC(=O)N[C@@H](CC(=O)O)C(=O)N[C@@H](CO)C(=O)N3)NC2=O)C(=O)N[C@@H](CO)C(=O)N[C@@H](CO)C(=O)N[C@@H](CCCCN)C(=O)N[C@@H](Cc2c[nH]cn2)C(=O)N[C@@H](CCCCN)C(=O)N[C@@H](Cc2c[nH]c3ccccc23)C(=O)N1)C(C)C)C(N)=O [N19K] (H-GCKGFGDSCTPGKNECCPKYACSSKHKWCKVYL-NH2; disulfide 2-17, 9-22, 16-29) | 475 ± 103 nM | – |
| CC(C)C[C@H](NC(=O)[C@H](Cc1ccc(O)cc1)NC(=O)[C@@H](NC(=O)[C@H](CCCCN)NC(=O)[C@@H]1CSSC[C@@H]2NC(=O)[C@H](CCC(=O)O)NC(=O)[C@H](CC(N)=O)NC(=O)[C@H](CCCCN)NC(=O)CNC(=O)[C@@H]3CCCN3C(=O)[C@H]([C@@H](C)O)NC(=O)[C@@H]3CSSC[C@H](NC(=O)[C@H](C)NC(=O)[C@H](Cc4ccc(O)cc4)NC(=O)[C@H](CC(C)C)NC(=O)[C@@H]4CCCN4C(=O)[C@H](CSSC[C@H](NC(=O)CN)C(=O)N[C@@H](CCCCN)C(=O)NCC(=O)N[C@@H](Cc4ccccc4)C(=O)NCC(=O)N[C@@H](CC(=O)O)C(=O)N[C@@H](CO)C(=O)N3)NC2=O)C(=O)N[C@@H](CO)C(=O)N[C@@H](CO)C(=O)N[C@@H](CCCCN)C(=O)N[C@@H](Cc2c[nH]cn2)C(=O)N[C@@H](CCCCN)C(=O)N[C@@H](Cc2c[nH]c3ccccc23)C(=O)N1)C(C)C)C(N)=O [N19L] (H-GCKGFGDSCTPGKNECCPLYACSSKHKWCKVYL-NH2; disulfide 2-17, 9-22, 16-29) | 42 ± 4 nM | – |
| CC(C)C[C@H](NC(=O)[C@H](Cc1ccc(O)cc1)NC(=O)[C@@H](NC(=O)[C@H](CCCCN)NC(=O)[C@@H]1CSSC[C@@H]2NC(=O)[C@H](CCC(=O)O)NC(=O)[C@H](CC(N)=O)NC(=O)[C@H](CCCCN)NC(=O)CNC(=O)[C@@H]3CCCN3C(=O)[C@H]([C@@H](C)O)NC(=O)[C@@H]3CSSC[C@H](NC(=O)[C@H](C)NC(=O)[C@H](Cc4ccc(O)cc4)NC(=O)[C@H](CC(N)=O)NC(=O)[C@H](C)NC(=O)[C@H](CSSC[C@H](NC(=O)CN)C(=O)N[C@@H](CCCCN)C(=O)NCC(=O)N[C@@H](Cc4ccccc4)C(=O)NCC(=O)N[C@@H](CC(=O)O)C(=O)N[C@@H](CO)C(=O)N3)NC2=O)C(=O)N[C@@H](CO)C(=O)N[C@@H](CO)C(=O)N[C@@H](CCCCN)C(=O)N[C@@H](Cc2c[nH]cn2)C(=O)N[C@@H](CCCCN)C(=O)N[C@@H](Cc2c[nH]c3ccccc23)C(=O)N1)C(C)C)C(N)=O [P18A] (H-GCKGFGDSCTPGKNECCANYACSSKHKWCKVYL-NH2; disulfide 2-17, 9-22, 16-29) | 140 ± 43 nM | – |
| CC(C)C[C@H](NC(=O)[C@H](Cc1ccc(O)cc1)NC(=O)[C@@H](NC(=O)[C@H](CCCCN)NC(=O)[C@@H]1CSSC[C@@H]2NC(=O)[C@H](CCC(=O)O)NC(=O)[C@H](CC(N)=O)NC(=O)[C@H](CCCCN)NC(=O)CNC(=O)[C@@H]3CCCN3C(=O)[C@H]([C@@H](C)O)NC(=O)[C@@H]3CSSC[C@H](NC(=O)[C@H](C)NC(=O)[C@H](Cc4ccc(O)cc4)NC(=O)[C@H](CC(N)=O)NC(=O)[C@H](CCCCN)NC(=O)[C@H](CSSC[C@H](NC(=O)CN)C(=O)N[C@@H](CCCCN)C(=O)NCC(=O)N[C@@H](Cc4ccccc4)C(=O)NCC(=O)N[C@@H](CC(=O)O)C(=O)N[C@@H](CO)C(=O)N3)NC2=O)C(=O)N[C@@H](CO)C(=O)N[C@@H](CO)C(=O)N[C@@H](CCCCN)C(=O)N[C@@H](Cc2c[nH]cn2)C(=O)N[C@@H](CCCCN)C(=O)N[C@@H](Cc2c[nH]c3ccccc23)C(=O)N1)C(C)C)C(N)=O [P18K] (H-GCKGFGDSCTPGKNECCKNYACSSKHKWCKVYL-NH2; disulfide 2-17, 9-22, 16-29) | 167 ± 117 nM | – |
| CC(C)C[C@H](NC(=O)[C@H](Cc1ccc(O)cc1)NC(=O)[C@@H](NC(=O)[C@H](CCCCN)NC(=O)[C@@H]1CSSC[C@@H]2NC(=O)[C@H](CCC(=O)O)NC(=O)[C@H](CC(N)=O)NC(=O)[C@H](CCCCN)NC(=O)CNC(=O)[C@@H]3CCCN3C(=O)[C@H](CCC(=O)O)NC(=O)[C@@H]3CSSC[C@H](NC(=O)[C@H](C)NC(=O)[C@H](Cc4ccc(O)cc4)NC(=O)[C@H](CC(N)=O)NC(=O)[C@@H]4CCCN4C(=O)[C@H](CSSC[C@H](NC(=O)CN)C(=O)N[C@@H](CCCCN)C(=O)NCC(=O)N[C@@H](Cc4ccccc4)C(=O)NCC(=O)N[C@@H](CC(=O)O)C(=O)N[C@@H](CO)C(=O)N3)NC2=O)C(=O)N[C@@H](CO)C(=O)N[C@@H](CO)C(=O)N[C@@H](CCCCN)C(=O)N[C@@H](Cc2c[nH]cn2)C(=O)N[C@@H](CCCCN)C(=O)N[C@@H](Cc2c[nH]c3ccccc23)C(=O)N1)C(C)C)C(N)=O [T10E] (H-GCKGFGDSCEPGKNECCPNYACSSKHKWCKVYL-NH2; disulfide 2-17, 9-22, 16-29) | 452 ± 221 nM | – |
| CC(C)C[C@H](NC(=O)[C@H](Cc1ccc(O)cc1)NC(=O)[C@@H](NC(=O)[C@H](CCCCN)NC(=O)[C@@H]1CSSC[C@@H]2NC(=O)[C@H](CCC(=O)O)NC(=O)[C@H](CC(N)=O)NC(=O)[C@H](CCCCN)NC(=O)CNC(=O)[C@@H]3CCCN3C(=O)[C@H]([C@@H](C)O)NC(=O)[C@@H]3CSSC[C@H](NC(=O)[C@H](C)NC(=O)[C@H](Cc4ccc(O)cc4)NC(=O)[C@H](CC(N)=O)NC(=O)[C@@H]4CCCN4C(=O)[C@H](CSSC[C@H](NC(=O)CN)C(=O)N[C@@H](CCCCN)C(=O)NCC(=O)N[C@@H](Cc4ccccc4)C(=O)NCC(=O)N[C@@H](CC(=O)O)C(=O)N[C@@H](CO)C(=O)N3)NC2=O)C(=O)N[C@@H](CO)C(=O)N[C@@H](CO)C(=O)N[C@@H](CCCCN)C(=O)N[C@@H](Cc2c[nH]cn2)C(=O)N[C@@H](CCCCN)C(=O)N[C@@H](C)C(=O)N1)C(C)C)C(N)=O [W28A] (H-GCKGFGDSCTPGKNECCPNYACSSKHKACKVYL-NH2; disulfide 2-17, 9-22, 16-29; N-terminus and C-terminus assumed) | – | inhibition of rKv4.2, in words ([1]; analogue compared with its parent toxin): dramatically decreased inhibition |

Reference: article PMC11558128 (Advanced Science, 2024)
